Measurements taken from publication PMC10720262, “Molecular determinants of cross-reactivity and potency by VH3-33 antibodies against the Plasmodium falciparum circumsporozoite protein” (Cell Reports, 2023).
Where two headings read alike, the source gives them in different places.

Key:
[1] = test system: Pf sporozoites (traversal of HC-04 cells); test: In vitro sporozoite traversal assay; format: cell-based, Plasmodium falciparum; settings: Pf NF54 sporozoites pre-incubated with diluted IgG 30 min, rhodamine dextran, 1 h at 37°C, high content imaging
Procedure: Pf NF54 asexual and sexual blood stage parasites were cultured in a semi-automated culture system as described by Ponnudurai.[69]^,[70] Sporozoites were produced by feeding Anopheles stephensi mosquitos (Sind-Kasur Nijmegen strain) using standard membrane feeding of cultured gametocytes, as was described by Feldmann.[71] Salivary glands were dissected, collected in Leibovitz L15 medium supplemented with 1% PenStrep and homogenized in a homemade glass grinder. Sporozoites were counted in a Bürker-Türk counting chamber using phase-contrast microscopy.
Human hepatoma (HC-04) cells were seeded in microtiter plates and grown to near confluence. Fresh P. falciparum salivary gland sporozoites[56] were isolated from Anopheles stephensi mosquitoes and pre-incubated with diluted IgG for 30 min before adding rhodamine dextran. Following incubation for 1 h at 37°C, cell nuclei were stained with DAPI. Fluorescence levels of traversed cells were quantitated using a high content automated imager.

[2] = target: recombinant full-length PfCSP (strain NF54); test: Biolayer interferometry (BLI) binding to recombinant PfCSP; set-up: species or system Plasmodium falciparum; settings: Octet RED96, His-tagged PfCSP 10 μg/mL on Ni-NTA biosensors, 2-fold dilutions of mAb in PBS pH 7.4/0.01% BSA/0.002% Tween 20, 1:1 binding model
Procedure: The resulting plasmid was transfected into FreeStyle HEK293F cells and GFP fluorescence was used to select for single cells via FACS. The selected single cell was expanded and cultured in GIBCO Freestyle 293 Expression Medium and maintained with 200 μg/mL of geneticin (G418 solution; Invivogen). Protein expression was enabled by subculturing the stable cells without antibiotic to a density of 8 x 10^5 cells/mL and harvested after 5–7 days.
After a steady baseline was established, biosensors were dipped into wells containing 2-fold dilutions of each mAb in kinetics buffer. Tips were then immersed back into kinetics buffer for measurement of the dissociation rate. Kinetics data were analyzed using the FortéBio’s Octet Data Analysis software 9.0.0.6, and curves were fitted to a 1:1 binding model.

[3] = target: NPDP peptide ([…]); test: SPR (Carterra LSA), NPDP peptide; format: binding, Plasmodium falciparum; settings: mAb immobilized on CMD200M chip, peptide 2-fold series, top 8 μg/mL ([…]), 1X HBSTE pH 7.4, 25°C, 1:1 Langmuir model, mean of best triplicate
Excerpt: (§1) Synthetic peptides were custom made by Peptide Speciality Laboratory (PSL), Heidelberg (KQPA ([…]), NPDP ([…]), DND ([…]), NDN ([…]) and NANP3 ([…])), CPC Scientific (NPNA3 ([…]), NANP6 ([…]), KQPA, NPDP and NVDP ([…])) or GenScript (KQPA, NPDP, NANP3, NDN, DND, and NANP5 ([…])). With the exception of NANP6, all other peptides were acetylated at N-termini and amidated at C-termini. NANP6 contained an N-terminal biotin-aminohexanoic acid tag and an unmodified C terminus.
(§2) In each assay, a single analyte peptide antigen (KQPA, NPDP, NVDP, NPNA3 or NANP6) was titrated against the immobilized mAbs. Using 10 mM MES buffer at pH 5.5 with 0.01% Tween 20 as running buffer, the chip was first activated by N-Hydroxysuccinimide (NHS) and 1-Ethyl-3-(3-dimethylaminopropyl) carbodiimide hydrochloride (EDC). Then, PfCSP-specific mAbs were directly immobilized (in 10 mM sodium acetate at pH 4.5) at 10 μg/mL or 5 μg/mL concentrations for 600 s, followed by quenching of unreactive esters using 1 M ethanolamine-HCl at pH 8.5. […]
(§3) The kinetics titration data collected were first pre-processed in the Kinetics (Carterra) software, including reference subtraction, buffer subtraction and data smoothing. The data were then exported and analyzed using the TitrationAnalysis tool developed in-house.[58] […] For antigens with multiple repeats of epitopes, the KD values determined includes avidity effect.

[4] = target: KQPA peptide ([…]); test: SPR (Carterra LSA), KQPA peptide; format: binding, Plasmodium falciparum; settings: mAb immobilized on CMD200M chip, peptide 2-fold series, top 8 μg/mL (5.03 μM), 1X HBSTE pH 7.4, 25°C, 1:1 Langmuir model, mean of best triplicate
Excerpt: as §1, §2, §3

[5] = target: NPNA3 peptide ([…]); test: SPR (Carterra LSA), NPNA3 peptide; format: binding, Plasmodium falciparum; settings: mAb immobilized on CMD200M chip, peptide 2-fold series, top 8 μg/mL (6.41 μM), 1X HBSTE pH 7.4, 25°C, 1:1 Langmuir model, mean of best triplicate
Excerpt: as §1, §2, §3

[6] = test system: transgenic Plasmodium berghei sporozoites expressing PfCSP (PbPfCSP); test: Liver burden reduction assay; format: in vivo, Plasmodium berghei in C57BL/6 mice; settings: C57BL/6 mice, 100 μg mAb i.v., 16 h later 2,000 PbPfCSP sporozoites i.v., bioluminescence 42 h after challenge; relative to naive mice; n=5
Excerpt: P. berghei transgenic parasites expressing PfCSP, GFP and luciferase were generated as previously described.[57] Briefly, P. berghei, strain ANKA 676m1c11, which expresses GFP and luciferase were obtained from MR4 (ATCC). Parasites were transfected to replace the CSP gene with a modified gene consisting of the CSP of Pf. To obtain sporozoites, Anopheles stephensi mosquitos were fed on mice infected with the parasite. 19–22 days later salivary glands from the infected mosquitos were obtained and sporozoites were isolated to infect mice.
Parasite challenge to measure liver burden was assessed as previously described.[57] Briefly, 6-8-week-old C57BL/6 female mice were injected intravenously with 100 μg of the respective mAb. Mice were challenged 16 h later with 2,000 PfCSP-expressing transgenic Pb sporozoites delivered i.v. in HBSS-2% FBS. Mice were injected intraperitoneally with 100 μL of D-luciferin at 30 mg/mL 42 h after sporozoite challenge, anesthetized with isoflurane and imaged in the IVIS Spectrum Imaging System to measure the bioluminescence expressed by the transgenic parasite.

[7] = target: NANP6 peptide ([…]); test: SPR (Carterra LSA), NANP6 peptide; format: binding, Plasmodium falciparum; settings: mAb immobilized on CMD200M chip, peptide 2-fold series, top 8 μg/mL (2.92 μM), 1X HBSTE pH 7.4, 25°C, 1:1 Langmuir model, mean of best triplicate, KD includes avidity effect for antigens with multiple repeats of epitopes
Excerpt: as §1, §2, §3

[8] = test system: NDN peptide ([…]); test: Peptide ELISA (AUC), NDN; format: binding, Plasmodium falciparum
Procedure: (§4) With the exception of NANP6, all other peptides were acetylated at N-termini and amidated at C-termini. NANP6 contained an N-terminal biotin-aminohexanoic acid tag and an unmodified C terminus.
(§5) Antigen ELISAs were performed as previously described.[21]^,[25] In brief, high-binding 384-well polystyrene plates (Corning) were coated overnight at 4°C with 2 μg/mL of the indicated peptides synthesized at PSL, Heidelberg. Plates were washed three times with 0.05% Tween 20 in PBS, blocked with 50 μL of 1% BSA in PBS for 1 h at room temperature (RT), and washed again. For analysis of mAbs, 15 μL/well of serially diluted mAbs (starting concentration 1.0 μg/mL, 1 in 4 dilution for 4 steps) were incubated for 2 h at RT. Wells were washed six times and incubated with goat anti-human IgG-HRP at a 1:1000 dilution (Jackson ImmunoResearch) in PBS with 1% BSA for 1 h. Wells were washed again and one-step ABTS substrate (RT, 20 μL/well; Roche) and 1× KPL ABTS peroxidase stop solution (RT, 20 μL/well; SeraCare Life Sciences) were used for detection. Area under the ELISA curve (AUC) was calculated using GraphPad Prism 7.04 (GraphPad).

[9] = test system: NPDP peptide ([…]); test: Peptide ELISA (AUC), NPDP; format: binding, Plasmodium falciparum; settings: plates coated with 2 μg/mL peptide; mAb from 1.0 μg/mL, 1 in 4 dilution, 4 steps; area under ELISA curve; mean of three independent experiments
Procedure: as §4, §5

[10] = test system: NANP3 peptide ([…]); test: Peptide ELISA (AUC), NANP3; format: binding, Plasmodium falciparum
Procedure: as §4, §5

[11] = test system: KQPA peptide ([…]); test: Peptide ELISA (AUC), KQPA; format: binding, Plasmodium falciparum
Procedure: as §4, §5

[12] = target: NANP3 peptide ([…]); test: SPR (Biacore T200), NANP3 peptide; format: binding, Plasmodium falciparum
Procedure: as §4
(§6) Affinity of 56 VH3-33 mAbs to DND and NANP3 peptides were measured using SPR in Biacore Cytiva T200, as described before.[21] In brief, series S sensor chip CM5 (GE Healthcare) was docked in the instrument and 10 mM HEPES (pH 7.4) containing 200 mM NaCl, 0.02% Tween 20 and 0.05% BSA was used as running buffer. Anti-human IgG from human antibody capture kit (GE Healthcare) was immobilized in both flow cells through amine coupling following manufacturer’s instructions. […] Upon stabilizing flow cells with running buffer for 20 min, indicated peptides synthesized at PSL Heidelberg were injected at 0, 0.015, 0.09, 0.55, 3.3 and 20 μM concentration at a flow rate of 30 μL/min. Association and dissociation of the peptides were measured at 25°C for 60 s and 180 s, respectively. 3M MgCl2 was used for the regeneration of both flow cells. 1:1 binding model or steady-state kinetic analysis in the Biacore T200 software V2.0 was used for fitting the data and obtaining kinetic rates and constant.

[13] = target: DND peptide ([…]); test: SPR (Biacore T200), DND peptide; format: binding, Plasmodium falciparum
Procedure: as §4, §6

[14] = test system: DND peptide ([…]); test: Peptide ELISA (AUC), DND; format: binding, Plasmodium falciparum; settings: ELISA Area Under the Curve
Procedure: as §4, §5

[15] = plates coated with 2 μg/mL peptide, mAb from 1.0 μg/mL, 1 in 4 dilution, 4 steps, area under ELISA curve, mean of three independent experiments

“Ky311: VH3-33/Vk3-11 anti-PfCSP mAb from Kymouse platform, expressed as human IgG1; MGG4-like binding mode” was tested, and the “Traversal Inhibition IC50” value [1] was 0.664 µg/mL, the Kd [2] was 7.39 nM and the Kd [3] was 3.75 nM. For the same substance, the Kd [4] was 427 nM, the Kd [5] was 0.00107 µM and the “Liver Burden Assay Reduction” value [6] was 75%.

With “mAb CIS43: previously characterized NPDP-specific human anti-PfCSP mAb (IGHV1-3) [reference compound]” the Kd [7] was 54.9 nM, the “ELISA AUC NDN” value [8, 15] was 0.20 and the “Traversal Inhibition IC50” value [1] was 0.362 µg/mL. The “ELISA AUC NPDP” value [9] was 1.50, the “ELISA AUC NANP3” value [10, 15] was 0.20 and the “ELISA AUC KQPA” value [11, 15] was 0.10. For the same substance, the Kd [2] was 15.6 nM, the Kd [3] was 19.1 nM and the “SPR KQPA KD” value [4] was “Non-binder”. For the same substance, the Kd [5] was 9.43 µM and the Kd ([12]; Biacore T200, mAb captured via anti-human IgG on CM5, peptide 0-20 μM, 25°C, 1:1 binding model or steady-state analysis, single measurement for sample mAbs, three independent measurements for previously characterized mAbs, read-out: SPR NANP3 KD) was 1720 nM.

“QIQLVESGGGVVQPGRSLRLSCAASGFTFSTYGMHWVRQAPGKGLEWVAVIWYDGSNKYYADSVQGRFTISRDNSKNTLYLQMNSLRAEDTAIYYCTTVGPIPFDYWGQGTLVTVSS [CL-514716]” was tested, and the “DND KD (M)” value [13] was “Non-binder” and the “NANP3 KD (M)” value ([12]; SPR, NANP3 peptide) was “Non-binder”.

With “QVQLVESGGGVVQPGGSLRLSCAASGFTFSGSGMHWVRHAPGKGLEWVAIIWYDGSNKFYADSVKGRFTISRDNSRNTLYLQMNSLRAEDTAVYYCARAYVSGNYGDKYGMDVWGQGTTVTVSS [CL-532151]” the “NDN AUC” value ([8]; ELISA Area Under the Curve, NDN peptide) was 0.29, the “DND AUC” value [14] was 2.23 and the “NANP3 AUC” value ([10]; ELISA Area Under the Curve, NANP3 peptide) was 1.84. The “KQPA AUC” value ([11]; ELISA Area Under the Curve, KQPA peptide) was 1.36.

“LVQLVESGGGVVQPGRSLRLSCAASGFTFSSSGMHWVRQAPGKGLEWVAIIWYDGSNKFYADSVKGRFTISRDNSKNTLYLQMNSLRAEDTAVYYCARAYVSGSHGDKYGMDVWGQGTTVTVSS [CL-531912]” gave a Kd ([12]; SPR, NANP3 peptide, read-out: NANP3 KD) of 55 nM.
